The supplement of paper PMC10307832

Assays:
Assay in all cases: relative viability (nuclei count vs DMSO), 5 days (fraction); higher = more cells survive
Elesclomol + Bortezomib = compound: CN(NC(=O)CC(=O)NN(C)C(=S)c1ccccc1)C(=S)c1ccccc1 [Elesclomol] + CC(C)C[C@H](NC(=O)[C@H](Cc1ccccc1)NC(=O)c1cnccn1)B(O)O [Bortezomib] (partner 0.002 µM)
How it was run: (§1)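 Relative viability divides the nuclei count in treated wells by that in vehicle wells. Lung cancer cell lines were seeded in 1536-well plates, dosed by pin tool the next day, and fixed and stained after 5 days in one step with final 0.05% Triton X-100, 1% formaldehyde and 1 ug/ml Hoechst. Dosing was a single drug or a fixed anchor-drug dose plus five library-drug doses (not always all listed) in √10 steps, and values are medians of duplicate plates imaged at 4×.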

Elesclomol + Decitabine = compound: CN(NC(=O)CC(=O)NN(C)C(=S)c1ccccc1)C(=S)c1ccccc1 [Elesclomol] + Nc1ncn([C@H]2C[C@H](O)[C@@H](CO)O2)c(=O)n1 [Decitabine] (partner 2 µM)
How it was run: as §1

Elesclomol + OSI-027 = compound: CN(NC(=O)CC(=O)NN(C)C(=S)c1ccccc1)C(=S)c1ccccc1 [Elesclomol] + COc1cccc2cc(-c3nc([C@H]4CC[C@H](C(=O)O)CC4)n4ncnc(N)c34)[nH]c12 [OSI-027] (partner 0.5 µM)
How it was run: as §1

Elesclomol + Pemetrexed = compound: CN(NC(=O)CC(=O)NN(C)C(=S)c1ccccc1)C(=S)c1ccccc1 [Elesclomol] + Nc1nc2[nH]cc(CCc3ccc(C(=O)N[C@@H](CCC(=O)O)C(=O)O)cc3)c2c(=O)[nH]1 [Pemetrexed] (partner 0.2 µM)
How it was run: as §1

Elesclomol + Crizotinib = compound: CN(NC(=O)CC(=O)NN(C)C(=S)c1ccccc1)C(=S)c1ccccc1 [Elesclomol] + C[C@@H](Oc1cc(-c2cnn(C3CCNCC3)c2)cnc1N)c1c(Cl)ccc(F)c1Cl [Crizotinib] (partner 1 µM)
How it was run: as §1

Row | Cell Line | relative viability (Elesclomol + Bortezomib; first compound 0.003162 µM) | relative viability (Elesclomol + Bortezomib; first compound 0.01 µM) | relative viability (Elesclomol + Bortezomib; first compound 0.03162 µM) | relative viability (Elesclomol + Bortezomib; first compound 0.1 µM) | relative viability (Elesclomol + Decitabine; first compound 0.003162 µM) | relative viability (Elesclomol + Decitabine; first compound 0.01 µM) | relative viability (Elesclomol + Decitabine; first compound 0.03162 µM) | relative viability (Elesclomol + Decitabine; first compound 0.1 µM) | relative viability (Elesclomol + OSI-027; first compound 0.003162 µM) | relative viability (Elesclomol + OSI-027; first compound 0.01 µM) | relative viability (Elesclomol + OSI-027; first compound 0.03162 µM) | relative viability (Elesclomol + OSI-027; first compound 0.1 µM) | relative viability (Elesclomol + Pemetrexed; first compound 0.003162 µM) | relative viability (Elesclomol + Pemetrexed; first compound 0.01 µM) | relative viability (Elesclomol + Pemetrexed; first compound 0.03162 µM) | relative viability (Elesclomol + Pemetrexed; first compound 0.1 µM) | relative viability (Elesclomol + Crizotinib; first compound 0.003162 µM) | relative viability (Elesclomol + Crizotinib; first compound 0.01 µM) | relative viability (Elesclomol + Crizotinib; first compound 0.03162 µM) | relative viability (Elesclomol + Crizotinib; first compound 0.1 µM)
1 | NCI-H2087 | 0.896 | 0.49 | 0.502 | 0.495 | 0.379 | 0.226 | 0.175 | 0.082 | 0.422 | 0.283 | 0.357 | 0.225 | 0.588 | 0.685 | 0.609 | 0.108 | 0.814 | 0.531 | 0.495 | 0.457
2 | NCI-H2126 | 1.11 | 1.08 | 1.11 | 1.17 | 0.538 | 0.616 | 0.558 | 0.593 | 0.826 | 0.637 | 0.455 | 0.246 | 0.766 | 0.59 | 0.686 | 0.542 | 1.02 | 1.05 | 1.03 | 1.02
3 | NCI-H2347 | 0.929 | 0.765 | 0.891 | 0.544 | 0.662 | 0.56 | 0.534 | 0.475 | 0.389 | 0.389 | 0.173 | 0.211 | 0.401 | 0.372 | 0.411 | 0.441 | 0.626 | 0.503 | 0.416 | 0.433
4 | NCI-H2405 | 0.959 | 0.842 | 0.515 | 0.458 | 0.775 | 0.643 | 0.336 | 0.324 | 0.651 | 0.473 | 0.339 | 0.272 | 1.03 | 0.707 | 0.323 | 0.297 | 0.785 | 0.565 | 0.306 | 0.307
5 | NCI-H3122 | 1.05 | 0.994 | 0.957 | 0.409 | 0.415 | 0.455 | 0.397 | 0.0861 | 0.955 | 0.198 | 0.144 | 0.0943 | 0.177 | 0.229 | 0.194 | 0.128 | 0.253 | 0.329 | 0.296 | 0.217
6 | PC-3 [JPC-3] | 0.82 | 0.73 | 0.764 | 0.755 | 0.877 | 0.656 | 0.487 | 0.524 | 0.734 | 0.662 | 0.781 | 0.428 | 1.04 | 0.714 | 0.518 | 0.499 | 0.972 | 0.959 | 1.02 | 0.743
7 | PC-14 | 0.862 | 0.244 | 0.0404 | 0.0297 | 0.126 | 0.0523 | 0.0385 | 0.0283 | 0.19 | 0.0399 | 0.0104 | 0.0138 | 0.14 | 0.0457 | 0.0214 | 0.0198 | 0.918 | 0.526 | 0.203 | 0.0548
8 | RERF-LC-KJ | 0.943 | 0.536 | 0.322 | 0.276 | 0.414 | 0.288 | 0.297 | 0.222 | 0.406 | 0.372 | 0.242 | 0.188 | 0.412 | 0.369 | 0.332 | 0.268 | 0.832 | 0.473 | 0.373 | 0.336
9 | SK-LU-1 | 1.45 | 0.424 | 0.38 | 0.116 | 0.679 | 0.575 | 0.481 | 0.468 | 0.319 | 0.271 | 0.211 | 0.0858 | 1.01 | 0.889 | 0.625 | 0.521 | 0.904 | 0.677 | 0.362 | 0.141
10 | SW 1573 | 1.02 | 0.174 | 0.105 | 0.103 | 0.173 | 0.111 | 0.0529 | 0.0067 | 0.167 | 0.107 | 0.0847 | 0.0105 | 0.464 | 0.158 | 0.115 | 0.0205 | 0.806 | 0.344 | 0.147 | 0.128
11 | UMC-11 | 0.802 | 0.495 | 0.491 | 0.352 | 0.674 | 0.582 | 0.276 | 0.359 | 0.482 | 0.428 | 0.396 | 0.336 | 0.806 | 0.655 | 0.478 | 0.336 | 0.649 | 0.445 | 0.343 | 0.183
